# Literature values, collected in patent US20020107236A1, “Methods of treating sexual dysfunction associated with hypertension” (priority 2000, published 2002).
# System: male rats
# Details: used for treatment of hypertensive disorder in male rats
structure (smiles),measurement,value
CCCCc1nc(Cl)c(CO)n1Cc1ccc(-c2ccccc2-c2nn[nH]n2)cc1 [losartan],preservation of sexual function,advantage in preservation of sexual function
